{
  "source": "patent US20250019379A1",
  "about": "“NEW CRYSTAL FORM OF COMPOUND, AND PREPARATION METHOD THEREFOR AND USE THEREOF” (E-nitiate Biopharmaceuticals (Hangzhou) Co., Ltd, priority 2021, published 2025)",
  "format_in_all_cases": "physicochemical",
  "key": {"[1]": {"experiment": "Influencing factors test (light, high temperature, high humidity)", "conditions": "5000Lx light, 60° C., 90% RH±5% RH; 0, 5, 10, 30 days", "procedure": "The stability of the crystalline form of the present invention under accelerated test conditions was determined. […] Stability testing was conducted under the following conditions, and samples were taken on the 0th day, the 5th day, the 10th day and the 30th day. The content, total impurities, and XRPD patterns of the samples were recorded and compared with the initial data."}, "[2]": {"experiment": "Thermodynamic analysis experiment (heating, XRPD)", "procedure": "Crystalline form H and crystalline form S were heated to appropriate temperatures under N2 protection, and after cooling to room temperature, the XRPD of the solids was measured."}, "[3]": {"experiment": "Crystal form stability test", "procedure": "The crystalline form M was stored at a temperature of 25° C. and a humidity of 55% RH for 35 days, and the XRPD of the solid was tested."}, "[4]": {"experiment": "Solid state stability (HPLC purity, XRPD)", "conditions": "for Purity (%): open", "procedure": "Purity testing (via HPLC) and crystal form detection (via XRPD) were performed on starting samples, samples stored for one week, and samples stored for two weeks."}, "[5]": {"experiment": "Dynamic solubility in biological solvents at 37° C.", "conditions": "37° C.", "procedure": "(1) Preparation method of FaSSIF: a. Weigh 42 mg NaOH, 395 mg NaH2PO4·H2O and 619 mg NaCl in a 100 mL beaker, add 90 mL deionized water to dissolve: b. Adjust the pH to […]; Dilute to 100 mL with deionized water to obtain FaSSIF blank solvent: c. Weigh 224 mg of Simulated Intestinal Fluid (hereinafter referred to as SIF powder), add 50 mL of the above FaSSIF blank solvent, and stir until completely dissolved; use Dilute the FaSSIF blank solvent to 100 mL to prepare the solvent FaSSIF; d. Let it stand at room temperature for 2 hours before use.\n(2) Preparation method of FeSSIF: a. Weigh 404 mg NaOH, 865 mg glacial acetic acid and 1189 mg NaCl in a 100 mL beaker, add 90 mL deionized water to dissolve: b. Adjust the pH to 5.0 with 1N NaOH or 1N HCl; Dilute to 100 mL with deionized water to obtain FeSSIF blank solvent; c. Weigh 1120 mg SIF powder and add 50 mL of the above FeSSIF blank solvent, stir until dissolved: dilute to 100 mL with FeSSIF blank solvent to obtain FeSSIF solvent d. Let it stand at room temperature before use to ensure a clear solution.\n(3) Preparation method of SGF: a. Weigh 200 mg NaCl in a 100 mL beaker, add 90 mL deionized water to dissolve; b. Adjust the pH to 1.6 with 1N HCl; dilute to 100 mL with deionized water to obtain SGF Blank solvent; c. Weigh 6 mg SIF powder and add 50 mL of the above SGF blank solvent, stir until dissolved: dilute to 100 mL with SGF blank solvent to prepare the solvent SGF: d. Let it stand at room temperature before use to ensure a clear solution.\n(100 rpm). Take 1.3 mL of the suspension (or clarified solution) respectively at 1, 4, and 24 hours, and centrifuge the suspension for 5 minutes. The solid obtained is used for crystal form detection (XRPD), and the supernatant/clarified solution is filtered for solubility testing and pH test.\nSolubility data of the samples were collected using a high-performance liquid chromatograph equipped with an image diode array detector."}},
  "data": [
    {"smiles": "C[C@@H](O)c1nc2cnc3[nH]ccc3c2n1N1CCC(CC#N)CC1", "note": "[Crystalline form H, (R)-2-(1-(2-(1-hydroxyethyl)imidazo[4,5-d]pyrrolo[2,3-b]pyridine-1(6H)-yl)piperidin-4-yl)acetonitrile]", "values": [
      {"measurement": "stability under accelerated test conditions (content, total impurities, XRPD)", "setting": "[1]", "value": "better stability"},
      {"measurement": "crystal form after heating (XRPD)", "setting": "[2]; heated to 162° C. under N2, cooled to room temperature", "value": "partially converted into crystalline form A"},
      {"measurement": "crystal form after heating (XRPD)", "setting": "[2]; heated to 210° C. under N2, cooled to room temperature", "value": "completely converted into crystalline form A"}
    ]},
    {"smiles": "C[C@@H](O)c1nc2cnc3[nH]ccc3c2n1N1CCC(CC#N)CC1", "note": "[Crystalline form M, (R)-2-(1-(2-(1-hydroxyethyl)imidazo[4,5-d]pyrrolo[2,3-b]pyridine-1(6H)-yl)piperidin-4-yl)acetonitrile]", "values": [
      {"measurement": "stability under ambient temperature and humidity", "setting": "[3]", "value": "unstable"},
      {"measurement": "crystal form after storage (XRPD)", "setting": "[3]; 25° C., 55% RH, 35 days", "value": "transformed into the crystalline form A"}
    ]},
    {"smiles": "C[C@@H](O)c1nc2cnc3[nH]ccc3c2n1N1CCC(CC#N)CC1", "note": "[Crystalline form Q, (R)-2-(1-(2-(1-hydroxyethyl)imidazo[4,5-d]pyrrolo[2,3-b]pyridine-1(6H)-yl)piperidin-4-yl)acetonitrile]", "values": [
      {"measurement": "solid-state stability (conclusion)", "setting": "[4]", "value": "good solid-state stability"},
      {"measurement": "Purity (%)", "setting": "[4]; 1 week, 25° C./60% RH", "value": 99.80, "unit": "%"},
      {"measurement": "Purity (%)", "setting": "[4]; 1 week, 40° C./75% RH", "value": 99.93, "unit": "%"},
      {"measurement": "Purity (%)", "setting": "[4]; 1 week, 60° C.", "value": 99.91, "unit": "%"},
      {"measurement": "Crystal form changes", "setting": "[4]; 1 week, 25° C./60% RH, 40° C./75% RH, 60° C.", "value": "no change"},
      {"measurement": "Purity (%)", "setting": "[4]; 2 week, 25° C./60% RH", "value": 99.87, "unit": "%"},
      {"measurement": "Purity (%)", "setting": "[4]; 2 week, 40° C./75% RH", "value": 99.87, "unit": "%"},
      {"measurement": "Purity (%)", "setting": "[4]; 2 week, 60° C.", "value": 99.92, "unit": "%"},
      {"measurement": "Crystal form changes", "setting": "[4]; 2 week, 25° C./60% RH, 40° C./75% RH, 60° C.", "value": "no change"},
      {"measurement": "change in the crystalline form (XRPD)", "setting": "[4]; after one week and two weeks of storage under the selected conditions", "value": "no change"},
      {"measurement": "change in purity", "setting": "[4]; after one week and two weeks under the selected conditions", "value": "no significant change"},
      {"measurement": "Starting sample Purity (%)", "setting": "[4]; starting sample", "value": 99.87, "unit": "%"},
      {"measurement": "Changes in Crystal form", "setting": "[5]; FaSSIF, 1 h", "value": "no change"},
      {"measurement": "pH", "setting": "[5]; FaSSIF, 1 h", "value": 6.45},
      {"measurement": "pH", "setting": "[5]; FaSSIF, 4 h", "value": 6.40},
      {"measurement": "Changes in Crystal form", "setting": "[5]; FaSSIF, 24 h", "value": "no change"},
      {"measurement": "pH", "setting": "[5]; FaSSIF, 24 h", "value": 6.49},
      {"measurement": "pH", "setting": "[5]; FeSSIF, 1 h", "value": 4.96},
      {"measurement": "pH", "setting": "[5]; FeSSIF, 4 h", "value": 4.98},
      {"measurement": "Changes in Crystal form", "setting": "[5]; FeSSIF, 24 h", "value": "no change"},
      {"measurement": "pH", "setting": "[5]; FeSSIF, 24 h", "value": 5.00},
      {"measurement": "Changes in Crystal form", "setting": "[5]; SGF, 1 h", "value": "no change"},
      {"measurement": "pH", "setting": "[5]; SGF, 1 h", "value": 2.60},
      {"measurement": "pH", "setting": "[5]; SGF, 4 h", "value": 2.98},
      {"measurement": "Changes in Crystal form", "setting": "[5]; SGF, 24 h", "value": "no change"},
      {"measurement": "pH", "setting": "[5]; SGF, 24 h", "value": 2.71},
      {"measurement": "crystal form stability when suspended and stirred", "setting": "[5]; SGF/FeSSIF/FeSSIF, 24 hours", "value": "stable"},
      {"measurement": "stability under accelerated test conditions (content, total impurities, XRPD)", "setting": "[1]", "value": "better stability"}
    ]},
    {"smiles": "C[C@@H](O)c1nc2cnc3[nH]ccc3c2n1N1CCC(CC#N)CC1", "note": "[Crystalline form S, (R)-2-(1-(2-(1-hydroxyethyl)imidazo[4,5-d]pyrrolo[2,3-b]pyridine-1(6H)-yl)piperidin-4-yl)acetonitrile]", "values": [
      {"measurement": "crystal form after heating (XRPD)", "setting": "[2]; heated to 215° C. under N2, cooled to room temperature", "value": "converted into crystalline form A"}
    ]}
  ]
}
